Consider three molecules from patent publication US10611777B2, “Imidazopyridazine compounds and their use” (HUTCHISON MEDIPHARMA LIMITED, priority 2014, dated 2020).

The target in one test is PI3K-β (p110β/p85α) (Homo sapiens (Human), UniProt P42338). The experiment in a line: Fluorescent determination of PI3K enzyme activity (Transcreener KINASE Assay), PI3K-β.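 Note: Far-red fluorescence polarization immunoassay detecting ADP produced by the kinase, 80 min enzyme reaction at room temperature, inhibition relative to ADP formed in 2% DMSO control wells.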 It counts as biochemical. The following applies: inhibition rate at 1 μM.
Sequence of PI3K-β (p110β/p85α) (P42338 whole entry, species assumed): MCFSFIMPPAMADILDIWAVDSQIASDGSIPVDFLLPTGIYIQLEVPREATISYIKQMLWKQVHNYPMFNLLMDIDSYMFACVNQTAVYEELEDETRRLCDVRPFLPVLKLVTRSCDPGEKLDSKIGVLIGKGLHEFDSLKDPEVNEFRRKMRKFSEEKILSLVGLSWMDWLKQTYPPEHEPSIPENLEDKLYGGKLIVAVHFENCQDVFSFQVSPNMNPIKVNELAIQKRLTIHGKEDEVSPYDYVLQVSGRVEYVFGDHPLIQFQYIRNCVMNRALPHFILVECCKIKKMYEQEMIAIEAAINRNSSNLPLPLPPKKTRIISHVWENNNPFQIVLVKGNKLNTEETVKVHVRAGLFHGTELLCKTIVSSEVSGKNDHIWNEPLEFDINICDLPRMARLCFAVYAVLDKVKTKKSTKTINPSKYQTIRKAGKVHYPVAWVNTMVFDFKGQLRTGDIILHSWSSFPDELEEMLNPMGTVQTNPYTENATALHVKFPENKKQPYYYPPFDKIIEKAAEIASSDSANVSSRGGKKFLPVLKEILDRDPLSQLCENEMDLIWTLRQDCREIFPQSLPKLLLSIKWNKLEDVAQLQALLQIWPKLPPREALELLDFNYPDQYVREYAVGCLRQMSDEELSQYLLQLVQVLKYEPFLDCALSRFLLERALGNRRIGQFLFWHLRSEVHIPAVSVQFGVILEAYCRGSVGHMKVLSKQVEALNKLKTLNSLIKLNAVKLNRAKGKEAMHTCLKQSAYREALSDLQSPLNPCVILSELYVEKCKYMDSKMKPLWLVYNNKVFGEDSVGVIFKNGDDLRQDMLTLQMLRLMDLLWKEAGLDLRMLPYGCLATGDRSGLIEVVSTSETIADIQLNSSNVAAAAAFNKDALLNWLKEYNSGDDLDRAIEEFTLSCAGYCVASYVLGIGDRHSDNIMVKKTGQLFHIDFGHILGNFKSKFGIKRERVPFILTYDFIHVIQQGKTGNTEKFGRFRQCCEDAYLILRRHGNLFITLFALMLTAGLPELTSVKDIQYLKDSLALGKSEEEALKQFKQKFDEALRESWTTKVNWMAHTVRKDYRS
Sequence of PI3K-β (p110β/p85α) (P27986 whole entry partner, species assumed): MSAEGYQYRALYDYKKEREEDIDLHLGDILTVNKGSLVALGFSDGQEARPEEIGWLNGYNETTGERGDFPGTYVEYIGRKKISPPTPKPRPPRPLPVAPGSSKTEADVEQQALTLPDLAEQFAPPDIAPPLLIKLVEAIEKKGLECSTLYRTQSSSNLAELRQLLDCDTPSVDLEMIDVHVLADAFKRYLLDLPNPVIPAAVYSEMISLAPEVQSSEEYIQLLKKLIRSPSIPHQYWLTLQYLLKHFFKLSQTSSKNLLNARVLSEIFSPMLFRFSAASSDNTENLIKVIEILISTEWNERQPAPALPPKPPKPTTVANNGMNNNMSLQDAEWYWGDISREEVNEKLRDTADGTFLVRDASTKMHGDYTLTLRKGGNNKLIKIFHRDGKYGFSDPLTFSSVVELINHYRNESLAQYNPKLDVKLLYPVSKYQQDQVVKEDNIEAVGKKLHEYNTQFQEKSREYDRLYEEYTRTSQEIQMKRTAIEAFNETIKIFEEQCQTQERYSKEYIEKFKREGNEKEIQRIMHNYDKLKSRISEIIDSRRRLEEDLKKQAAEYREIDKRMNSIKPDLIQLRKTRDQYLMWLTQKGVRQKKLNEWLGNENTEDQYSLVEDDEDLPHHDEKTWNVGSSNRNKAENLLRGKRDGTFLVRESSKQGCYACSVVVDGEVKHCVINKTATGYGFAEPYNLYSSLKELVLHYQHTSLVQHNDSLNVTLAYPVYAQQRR
The target of another test is PI3K-α (p110α/p85α) (Homo sapiens (Human), UniProt P42336). The experiment in a line: Fluorescent determination of PI3K enzyme activity (Transcreener KINASE Assay), PI3K-α. The following applies: inhibition rate at 1 μM. The class given is biochemical. On the procedure:
Inhibition rates were calculated as follow: IH %=(ADP amount under 2% DMSO well−ADP amount under test compound well)/ADP amount under 2% DMSO well×100%.

Test [1] deals with AKT phosphorylation (p-AKT Ser473) in Ramos cells. The experiment in a line: Inhibition of AKT phosphorylation in Ramos cell line. The class given is cell-based. Conditions: anti-IgM stimulated.
Method: 6×10^4/mL Ramos cells (ATCC, CRL-1596; cells were cultured in RPMI1640 media with 10% FBS) were seeded into a 96-well plate (Bookman Dickinson, No. 356692) at 80 uL/well, 4,800 cells/well. After incubations for 3 hr at 37° C. under 5% CO2, Ramos cells were treated with 10 uL/well various concentrations of test compound (final concentrations of the test compound: 1 uM, 0.3 uM, 0.1 uM, 0.037 uM, 0.012 uM, 0.0041 uM, 0.0014 uM and 0.0005 uM) or 0.3% DMSO for 30 min, and then were stimulated with 10 uL/well 1 ug/ml Anti-IgM (Jackson Immunoresearch, 709-006-073) for 15-20 min. • 1) Cells were fixed with 100 μL of 4% pre-warmed Paraformaldehyde (2% final concentration), and incubated for 45 min at room temperature. • 2) The paraformaldehyde solution was removed. 100 μL of ice-cold methanol was added into each well and the plate was left at 4° C. for 30 min. • 3) The cells were washed for three times with 160 μPBS. • 4) 40 μL 1:350 dilution of Rabbit anti-p-AKT(Ser^473) antibody (Cell Signaling Technology, 4060 L) in antibody dilution buffer (1% BSA, in PBS) were added into each well. […]
(§1) Data was analyzed and IC50 values were generated using the add-in software for Microsoft Excel, Xlfit™ (version 5.3).
The test system of another test is SU-DHL-6 cell line. The experiment in a line: In vitro cell proliferation assay in SU-DHL-6 cell line. It counts as cell-based. Conditions: SU-DHL-6, 72 h, CCK-8.
The next test deals with PI3K-δ (p110δ/p85α) (Homo sapiens (Human), UniProt O00329). The experiment in a line: Fluorescent determination of PI3K enzyme activity (Transcreener KINASE Assay), PI3K-δ. It counts as biochemical.
Sequence of PI3K-δ (p110δ/p85α) (O00329 whole entry, species assumed): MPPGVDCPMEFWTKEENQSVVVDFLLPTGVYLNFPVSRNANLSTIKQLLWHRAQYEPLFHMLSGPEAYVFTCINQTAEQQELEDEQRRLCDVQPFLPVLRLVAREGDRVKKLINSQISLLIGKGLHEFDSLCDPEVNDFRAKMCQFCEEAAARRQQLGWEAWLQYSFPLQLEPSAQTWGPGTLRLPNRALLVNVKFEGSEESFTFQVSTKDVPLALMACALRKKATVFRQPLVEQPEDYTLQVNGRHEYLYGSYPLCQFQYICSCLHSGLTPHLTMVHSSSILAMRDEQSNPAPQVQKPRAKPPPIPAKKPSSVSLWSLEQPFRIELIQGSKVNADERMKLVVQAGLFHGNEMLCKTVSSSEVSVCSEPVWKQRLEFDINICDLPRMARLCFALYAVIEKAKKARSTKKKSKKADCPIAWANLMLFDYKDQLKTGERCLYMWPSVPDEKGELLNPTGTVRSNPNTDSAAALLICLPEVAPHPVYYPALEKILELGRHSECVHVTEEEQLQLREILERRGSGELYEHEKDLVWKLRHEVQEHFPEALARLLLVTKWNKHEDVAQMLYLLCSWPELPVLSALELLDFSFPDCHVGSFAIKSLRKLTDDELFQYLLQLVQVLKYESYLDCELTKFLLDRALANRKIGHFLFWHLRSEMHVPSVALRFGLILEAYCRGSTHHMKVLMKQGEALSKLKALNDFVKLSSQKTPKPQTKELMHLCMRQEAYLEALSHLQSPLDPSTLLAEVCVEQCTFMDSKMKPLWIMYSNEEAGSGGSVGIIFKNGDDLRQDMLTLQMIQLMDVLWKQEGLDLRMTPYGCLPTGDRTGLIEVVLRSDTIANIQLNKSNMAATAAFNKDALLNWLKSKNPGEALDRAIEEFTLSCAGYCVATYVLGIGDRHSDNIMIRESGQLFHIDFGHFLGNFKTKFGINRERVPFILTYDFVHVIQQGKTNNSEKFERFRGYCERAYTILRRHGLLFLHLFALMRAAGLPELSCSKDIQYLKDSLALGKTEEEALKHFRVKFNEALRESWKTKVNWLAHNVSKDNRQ
Sequence of PI3K-δ (p110δ/p85α) (P27986 whole entry partner, species assumed): as the sequence (P27986 whole entry partner, species assumed) above
Test [2] has as its system PI3Kδ signaling in basophils from human whole blood. The experiment in a line: Inhibition of PI3Kδ signaling in basophils from human whole blood. It counts as cell-based. Conditions: anti-IgE stimulated, CD63.
Method: • 1) Heparinized human whole blood was mixed and pipetted into the 96 well v-bottom plate, 100 μL per well. • 2) 10 μL of stimulation buffer (1 mg/mL stock, final concentration of Recombinant human IL-3; 20 ng/mL) was added to the whole blood samples of each well and vortex gently. The samples were incubated for 20 min at 37° C. • 3) 10 uL/well of test compound dilution (final concentrations of the test compound in well: 1 uM, 0.3 uM, 0.1 uM, 0.037 uM, 0.012 uM, 0.0041 uM, 0.0014 uM and 0.0005 uM) or vehicle (0.2% DMSO) was added into each well of the plate and the plate was incubated for 1.5 h at 37° C. • 4) 100 μL of the Goat anti-human IgE (1 mg/mL stock, final concentration of IgE: 0.31 ug/mL) working solution was added into each well of the plate. Vortex all the wells once more and incubate for 20 min at 37° C. • 5) Labeling with staining antibody: Degranulation was stopped by incubating the samples on ice for 5 min. 6 μL of staining antibody mixture (anti-CD63-FITC and anti-IgE-PE) was added into each well. […] The plate was incubated in a covered ice bath until analysis. • 10) Flow cytometric analysis: Cells were analyzed by flow cytometry using the blue-green excitation light (488 nm argon-ion laser, FACSCalibur, CELLQuest software).
as §1
Test [3] has as its system anti-IgD induced B cell activation. Briefly: Anti-IgD antibody induced B cells activation in rat whole blood (ex vivo after oral dosing). On the procedure: Activation of B cells (B220+) in rat whole blood with anti-IgD antibody leading to activation via Ig receptors is known to involve PI3K pathways and sensitive to modulation by PI3Kδ inhibitors. A pharmacodynamics assay was developed to assess activity of PI3Kδ inhibitors ex vivo following oral administration of inhibitors to rats.
Wistar rats (female, 6-8 weeks old) were used in the experiments. The dose dependency, time course study and PKPD relationship of compound 4 were conducted in normal Wistar rats. […] The control group (6 rats) was treated with the vehicle alone. […] The heparin anti-coagulated blood was mixed with anti-rat-IgD, then was incubated at 37° C. under 5% CO2 overnight. Fluorescence signal for CD86 on B220 (B cells) positive cells was detected using a flow cytometer (BD FACSCalibur, BD Biosciences) and data were analyzed by CellQuest software. Plasma was collected to measure compound 4 levels.

The subject of test [4] is Wistar rats with established type II collagen-induced arthritis. Briefly: Rat collagen II induced arthritis (CIA) model. It counts as in vivo. On the procedure:
Rat collagen induced arthritis is an experimental model of polyarthritis that has been widely used for nonclinical testing of numerous anti-arthritic agents that are either under nonclinical or clinical investigation or are currently used as therapeutics in this disease.
Wistar rats were immunized intradermally with 200 μg bovine collagen II emulsified in Freund's incomplete adjuvant (IFA, Sigma, US) on day 0 and day 7. The hind paw volumes were measured before and after the immunization. […] The naive group was not administered. YiSaiPu (10 mg/kg), a human tumor necrosis factor receptor p75 Fc fusion protein, was administered with intraperitoneal injection on days 10, 12 and 14 as a positive control. The study was terminated on day 18.

Each structure is given as a SMILES string. In brackets after ≈: the same amount, converted by molar mass.

Sequence of PI3K-α (p110α/p85α) (P42336 whole entry, species assumed): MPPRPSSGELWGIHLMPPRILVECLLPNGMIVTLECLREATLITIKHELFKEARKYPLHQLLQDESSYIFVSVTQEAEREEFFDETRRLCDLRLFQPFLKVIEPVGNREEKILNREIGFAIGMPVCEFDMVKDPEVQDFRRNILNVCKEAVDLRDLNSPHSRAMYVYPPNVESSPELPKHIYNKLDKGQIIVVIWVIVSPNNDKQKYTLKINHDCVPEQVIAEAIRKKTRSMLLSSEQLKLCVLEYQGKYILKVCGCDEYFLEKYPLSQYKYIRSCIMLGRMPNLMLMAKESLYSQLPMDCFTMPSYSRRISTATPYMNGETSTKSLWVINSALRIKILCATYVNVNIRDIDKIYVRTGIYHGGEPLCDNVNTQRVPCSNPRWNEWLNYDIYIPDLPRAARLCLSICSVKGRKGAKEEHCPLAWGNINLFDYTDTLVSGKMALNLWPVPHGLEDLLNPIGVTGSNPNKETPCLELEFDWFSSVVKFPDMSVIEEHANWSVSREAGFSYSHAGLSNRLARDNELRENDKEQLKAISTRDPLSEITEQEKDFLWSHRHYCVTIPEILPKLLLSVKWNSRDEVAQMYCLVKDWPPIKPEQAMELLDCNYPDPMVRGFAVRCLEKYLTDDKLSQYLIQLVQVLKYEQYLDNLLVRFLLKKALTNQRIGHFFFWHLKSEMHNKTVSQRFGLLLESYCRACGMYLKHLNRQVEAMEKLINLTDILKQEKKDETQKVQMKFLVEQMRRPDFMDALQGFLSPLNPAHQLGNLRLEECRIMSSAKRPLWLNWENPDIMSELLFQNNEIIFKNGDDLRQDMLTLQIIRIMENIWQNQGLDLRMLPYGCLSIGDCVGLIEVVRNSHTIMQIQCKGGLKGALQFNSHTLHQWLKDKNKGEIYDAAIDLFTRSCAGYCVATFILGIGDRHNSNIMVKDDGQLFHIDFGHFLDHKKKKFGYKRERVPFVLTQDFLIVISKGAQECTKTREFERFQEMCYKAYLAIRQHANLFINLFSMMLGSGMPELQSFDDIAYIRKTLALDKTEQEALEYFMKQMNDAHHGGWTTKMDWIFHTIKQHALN
Sequence of PI3K-α (p110α/p85α) (P27986 whole entry partner, species assumed): as the sequence (P27986 whole entry partner, species assumed) above
Method for PI3K-β (p110β/p85α): (§2) PI3K kinases including p110α/p85α and p110γ were purchased from Invitrogen, p110δ/p85α and p110β/p85α were from Millipore.
(§3) It is a universal, homogenous, high throughput screening (HTS) technology using a far-red, competitive fluorescence polarization immunoassay based on the defection of ADP to monitor the activity of enzymes that catalyze group transfer reactions. […] The reaction mixture was added into desired wells of a 96-well plate. The plate was sealed and incubated for 80 min at room temperature. • 2) Next, 25 uL ADP detection mix was added into each well. The plate was sealed again and incubated for 60 min at room temperature. Then fluorescence polarization was measured by Tecan Infinite F500 Reader.
as §1
Method for PI3K-δ (p110δ/p85α): as §2, §3, §1
Method for SU-DHL-6 cell line: Growth inhibition assays were carried out using 10% FBS supplemented media. Cells were seeded at a concentration of 15000 cells/well in a 96-well plate. Test compound dilution at different concentrations (final concentrations of the test compound: 1 uM, 0.3 uM, 0.1 uM, 0.037 uM, 0.012 uM, 0.0041 uM, 0.0014 uM and 0.0005 uM) were added after 24 hours. Growth was assessed using Cell Counting Kit-8 (CCK-8) (Dojindo, Cat # CK04) after the test compound were incubated for 72 h. Absorbance was read at the wave length 450 nm on Multiskan MK3 machine (Thermo).
as §1

For `Cc1cnc2cc([C@H](C)Nc3ncnc4[nH]cnc34)c(-c3ccccc3)nn12` [Compound 23], on PI3K-β (p110β/p85α), the “PI3K-β IH%” value was determined as 28.7%. Also, the “PI3K-α IH%” value at PI3K-α (p110α/p85α) stood at 3.2%. The IC50 (as a rule, the concentration needed to halve the response being measured) in test [1] turned out to be 12 nM; in the test with SU-DHL-6 cell line, 78 nM.
With `C[C@H](Nc1ncnc(N)c1C#N)c1cc2ncc(F)n2nc1-c1ccccc1` [Compound 78, (S)-4-amino-6-((1-(3-fluoro-6-phenylimidazo[1,2-b]pyridazin-7-yl)ethyl)amino)pyrimidine-5-carbonitrile], the IC50 was 1 nM against PI3K-δ (p110δ/p85α), 7 nM in test [1] (Homo sapiens) and 10 nM in test [2]. Also, the “PI3K-β IH%” value on PI3K-β (p110β/p85α) came out at 50.1%.
On to `C[C@H](Nc1ncnc(N)c1C#N)c1cc2ncc(Cl)n2nc1-c1ccccc1` [Compound 4, (S)-4-amino-6-((1-(3-chloro-6-phenylimidazo[1,2-b]pyridazin-7-yl)ethyl)amino)pyrimidine-5-carbonitrile], for which the EC50 in test [3] (Rattus norvegicus, B-cell, po, at 2 hr post-dose, read-out: EC50 (corresponding plasma concentration)) was found to be 1.49 ng/mL (≈ 3.8 nM). For the same molecule, the “anti-IgD induced B cell activation in rat whole blood, ex vivo” value in test [3] (oral, dose range 0.01 to 3 mg/kg, p<0.01) was “inhibited anti-IgD induced B cell activation in rat whole blood, ex vivo, in a dose- and time-dependent manner”. The “mean paw volume at the end of the treatment period compared to vehicle-treated diseased animals” value in test [4] (PO QD days 10-16, p<0.01, all doses except lowest dose 0.03 mg/kg) is on record as “significantly decreased”. For the same molecule, the “effects on the parameters associated with established type II collagen-induced arthritis” value in test [4] (daily oral treatment) is “dose-dependent beneficial effects”.
